Measurements published in ChEMBL document CHEMBL5096194, “Development of Alectinib-Based PROTACs as Novel Potent Degraders of Anaplastic Lymphoma Kinase (ALK)” (J Med Chem, 2021).
Calls of active or inactive are those of the source. The calls are words filed in the database; no cut-off is given here.

Legend:
KARPAS-299 [1] = experiment: Antiproliferative activity against ALK-positive human KARPAS-299 cells assessed as inhibition of cell proliferation measured after 72 hrs by MTT assay; format: functional, cell-based; conditions: KARPAS-299, 72 h
[2] = biological target: T1, Protein cereblon/ALK tyrosine kinase receptor/Echinoderm microtubule-associated protein-like 4 (Homo sapiens) (UniProt Q9UM73+Q9HC35+Q96SW2); experiment: Protac activity at CRBN/EML4-ALK in human NCI-H3122 cells assessed as induction of EML4-ALK fusion protein degradation at 1 uM incubated for 16 hrs by Western blot analysis relative to control; format: cell-based
[3] = biological target: T1, Protein cereblon/ALK tyrosine kinase receptor/Echinoderm microtubule-associated protein-like 4 (Homo sapiens); experiment: Protac activity at CRBN/EML4-ALK in human NCI-H3122 cells assessed as induction of EML4-ALK fusion protein degradation at 0.1 uM incubated for 16 hrs by Western blot analysis relative to control; format: cell-based
NCI-H3122 = experiment: Antiproliferative activity against ALK-positive human NCI-H3122 cells assessed as inhibition of cell proliferation measured after 72 hrs by MTT assay; format: functional, cell-based; conditions: NCI-H3122, 72 h
BaF3 [4] = experiment: Antiproliferative activity against mouse BaF3 cells expressing wild type EML-ALK assessed as cell viability at 1 uM incubated for 72 hrs by Celltitre-Glo assay relative to control; format: functional; conditions: read-out: Activity
BaF3 [5] = experiment: Antiproliferative activity against mouse BaF3 cells assessed as cell viability at 1 uM incubated for 72 hrs by Celltitre-Glo assay relative to control; format: functional; conditions: read-out: Activity
BaF3 [6] = experiment: Antiproliferative activity against crizotinib-resistant mouse BaF3 cells expressing EML-ALK G1202R mutant assessed as cell viability at 1 uM incubated for 72 hrs by Celltitre-Glo assay relative to control; format: functional; conditions: read-out: Activity
BaF3 [7] = experiment: Antiproliferative activity against crizotinib-resistant mouse BaF3 cells expressing EML-ALK L1196M mutant assessed as cell viability at 1 uM incubated for 72 hrs by Celltitre-Glo assay relative to control; format: functional; conditions: read-out: Activity
BaF3 [8] = experiment: Antiproliferative activity against crizotinib-resistant mouse BaF3 cells expressing EML-ALK L1152R mutant assessed as cell viability at 1 uM incubated for 72 hrs by Celltitre-Glo assay relative to control; format: functional; conditions: read-out: Activity
[9] = biological target: T2, ALK tyrosine kinase receptor (Homo sapiens, UniProt Q9UM73)
Target sequence in this assay (Q9UM73 whole entry): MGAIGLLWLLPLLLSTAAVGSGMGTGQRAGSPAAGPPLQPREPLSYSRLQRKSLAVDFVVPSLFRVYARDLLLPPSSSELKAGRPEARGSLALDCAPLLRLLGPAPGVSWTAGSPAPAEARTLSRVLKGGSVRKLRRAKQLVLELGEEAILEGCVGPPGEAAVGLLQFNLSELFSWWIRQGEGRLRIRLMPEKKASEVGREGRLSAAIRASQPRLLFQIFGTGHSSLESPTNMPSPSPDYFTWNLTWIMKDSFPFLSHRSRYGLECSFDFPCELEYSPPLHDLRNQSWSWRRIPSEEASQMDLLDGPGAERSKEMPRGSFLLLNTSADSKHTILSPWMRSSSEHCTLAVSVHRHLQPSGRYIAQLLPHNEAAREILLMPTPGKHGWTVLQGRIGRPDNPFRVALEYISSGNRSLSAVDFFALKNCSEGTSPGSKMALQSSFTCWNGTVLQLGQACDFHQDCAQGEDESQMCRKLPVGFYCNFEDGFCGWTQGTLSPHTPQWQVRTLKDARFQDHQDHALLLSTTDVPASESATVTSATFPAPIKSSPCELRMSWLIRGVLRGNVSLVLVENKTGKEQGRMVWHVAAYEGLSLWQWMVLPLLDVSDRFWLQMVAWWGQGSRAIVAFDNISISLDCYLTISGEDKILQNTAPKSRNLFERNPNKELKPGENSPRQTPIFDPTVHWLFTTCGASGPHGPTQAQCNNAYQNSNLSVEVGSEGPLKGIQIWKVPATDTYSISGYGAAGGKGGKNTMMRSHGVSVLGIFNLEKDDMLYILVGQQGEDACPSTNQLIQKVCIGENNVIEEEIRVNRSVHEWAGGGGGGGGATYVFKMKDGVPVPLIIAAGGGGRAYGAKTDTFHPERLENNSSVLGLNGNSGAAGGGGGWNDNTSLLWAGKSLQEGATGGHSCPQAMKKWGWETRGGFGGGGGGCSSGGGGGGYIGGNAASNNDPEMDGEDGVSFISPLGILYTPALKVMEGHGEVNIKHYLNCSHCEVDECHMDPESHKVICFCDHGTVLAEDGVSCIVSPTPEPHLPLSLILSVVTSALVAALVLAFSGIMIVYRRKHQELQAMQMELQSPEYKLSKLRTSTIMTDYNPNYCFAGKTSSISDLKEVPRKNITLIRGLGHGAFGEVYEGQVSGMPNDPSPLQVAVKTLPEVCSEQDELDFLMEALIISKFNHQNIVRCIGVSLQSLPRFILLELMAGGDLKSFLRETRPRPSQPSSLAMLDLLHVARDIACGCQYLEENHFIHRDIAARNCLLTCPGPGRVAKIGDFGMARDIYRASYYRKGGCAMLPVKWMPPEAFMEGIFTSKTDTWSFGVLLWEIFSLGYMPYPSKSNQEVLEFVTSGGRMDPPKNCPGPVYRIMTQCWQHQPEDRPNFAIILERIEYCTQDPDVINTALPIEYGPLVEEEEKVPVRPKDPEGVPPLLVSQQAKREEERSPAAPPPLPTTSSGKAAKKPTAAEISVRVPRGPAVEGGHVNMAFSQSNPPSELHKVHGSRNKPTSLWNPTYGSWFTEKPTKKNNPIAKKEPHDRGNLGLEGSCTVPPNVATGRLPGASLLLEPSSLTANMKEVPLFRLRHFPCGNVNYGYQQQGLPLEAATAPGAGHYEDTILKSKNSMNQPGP

[10] = biological target: T2, ALK tyrosine kinase receptor; experiment: Inhibition of ALK phosphorylation in human KARPAS-299 cells at 0.01 to 1 uM measured after 24 hrs by Western blot analysis; format: cell-based; conditions: dose 0.01-1 µM
Target sequence in this assay (Q9UM73 19-1620 limits assumed): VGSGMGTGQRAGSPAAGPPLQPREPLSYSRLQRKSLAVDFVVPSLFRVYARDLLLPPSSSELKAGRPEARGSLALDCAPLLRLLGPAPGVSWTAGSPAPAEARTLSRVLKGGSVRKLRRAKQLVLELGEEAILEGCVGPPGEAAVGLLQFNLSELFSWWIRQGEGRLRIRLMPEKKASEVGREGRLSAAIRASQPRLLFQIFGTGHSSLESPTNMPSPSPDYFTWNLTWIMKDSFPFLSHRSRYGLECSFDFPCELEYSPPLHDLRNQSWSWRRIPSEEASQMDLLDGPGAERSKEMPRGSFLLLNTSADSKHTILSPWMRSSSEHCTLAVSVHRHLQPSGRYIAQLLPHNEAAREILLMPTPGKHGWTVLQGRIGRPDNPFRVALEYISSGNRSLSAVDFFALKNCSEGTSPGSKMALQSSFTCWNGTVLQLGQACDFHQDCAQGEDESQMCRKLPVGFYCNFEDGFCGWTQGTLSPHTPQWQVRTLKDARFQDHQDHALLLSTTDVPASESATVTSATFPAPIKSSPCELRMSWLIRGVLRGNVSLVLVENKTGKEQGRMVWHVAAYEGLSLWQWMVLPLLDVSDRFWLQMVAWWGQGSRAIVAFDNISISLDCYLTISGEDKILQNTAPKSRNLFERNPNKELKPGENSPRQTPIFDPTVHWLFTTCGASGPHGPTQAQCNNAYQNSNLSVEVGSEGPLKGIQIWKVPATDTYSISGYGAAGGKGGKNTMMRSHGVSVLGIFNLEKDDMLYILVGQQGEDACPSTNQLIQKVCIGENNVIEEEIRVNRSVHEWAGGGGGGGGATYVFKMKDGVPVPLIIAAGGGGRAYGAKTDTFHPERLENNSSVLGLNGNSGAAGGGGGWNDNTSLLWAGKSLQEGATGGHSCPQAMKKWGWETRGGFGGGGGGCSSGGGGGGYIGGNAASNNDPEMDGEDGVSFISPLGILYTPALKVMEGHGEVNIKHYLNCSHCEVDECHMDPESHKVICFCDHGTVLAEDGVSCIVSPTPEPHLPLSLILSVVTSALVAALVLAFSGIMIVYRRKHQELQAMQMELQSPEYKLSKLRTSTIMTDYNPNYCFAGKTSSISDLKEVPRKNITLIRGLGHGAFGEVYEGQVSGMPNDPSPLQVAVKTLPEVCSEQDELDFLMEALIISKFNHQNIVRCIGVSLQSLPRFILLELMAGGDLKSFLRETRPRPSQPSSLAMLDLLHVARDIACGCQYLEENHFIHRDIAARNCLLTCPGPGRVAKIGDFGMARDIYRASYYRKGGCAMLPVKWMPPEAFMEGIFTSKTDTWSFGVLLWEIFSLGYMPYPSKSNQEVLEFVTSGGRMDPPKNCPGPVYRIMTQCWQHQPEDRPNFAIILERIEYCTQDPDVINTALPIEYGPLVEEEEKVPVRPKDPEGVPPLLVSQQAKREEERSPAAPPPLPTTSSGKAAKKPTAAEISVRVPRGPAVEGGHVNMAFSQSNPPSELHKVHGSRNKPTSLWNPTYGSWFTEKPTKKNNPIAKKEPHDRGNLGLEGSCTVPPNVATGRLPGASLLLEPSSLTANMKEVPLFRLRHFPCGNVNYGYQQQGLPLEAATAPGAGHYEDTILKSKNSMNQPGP

[11] = biological target: T3, Protein cereblon/ALK tyrosine kinase receptor/Nucleophosmin (Homo sapiens) (UniProt Q9UM73+P06748+Q96SW2); experiment: Protac activity at CRBN/NPM-ALK in human KARPAS-299 cells assessed as induction of NPM-ALK fusion protein degradation at 1 uM incubated for 24 hrs by Western blot analysis relative to control; format: cell-based
T3 sequence (P06748 whole entry partner, the tested form may be a part): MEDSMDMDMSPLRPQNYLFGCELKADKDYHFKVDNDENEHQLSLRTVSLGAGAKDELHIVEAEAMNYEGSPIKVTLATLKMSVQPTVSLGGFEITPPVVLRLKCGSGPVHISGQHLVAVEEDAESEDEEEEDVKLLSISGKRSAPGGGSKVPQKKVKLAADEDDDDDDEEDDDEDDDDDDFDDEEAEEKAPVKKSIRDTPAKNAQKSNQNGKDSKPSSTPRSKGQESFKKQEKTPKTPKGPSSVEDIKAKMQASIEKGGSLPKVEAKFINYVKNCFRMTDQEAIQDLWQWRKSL
T3 sequence (Q96SW2 whole entry partner, the tested form may be a part): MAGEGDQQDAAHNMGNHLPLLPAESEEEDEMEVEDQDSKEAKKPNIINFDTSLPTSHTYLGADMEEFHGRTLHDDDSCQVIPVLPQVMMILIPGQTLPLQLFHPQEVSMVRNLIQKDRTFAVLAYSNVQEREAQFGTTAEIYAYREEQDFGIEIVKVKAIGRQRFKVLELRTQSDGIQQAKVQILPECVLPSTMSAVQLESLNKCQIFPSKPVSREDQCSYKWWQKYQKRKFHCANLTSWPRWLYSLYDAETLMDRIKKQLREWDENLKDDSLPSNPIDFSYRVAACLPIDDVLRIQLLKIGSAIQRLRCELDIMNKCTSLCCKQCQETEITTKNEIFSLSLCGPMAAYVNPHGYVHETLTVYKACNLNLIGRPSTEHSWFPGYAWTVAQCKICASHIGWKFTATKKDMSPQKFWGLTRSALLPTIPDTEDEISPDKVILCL
T3 sequence (Q9UM73 19-1620 limits assumed): as the sequence (Q9UM73 19-1620 limits assumed) above

[12] = biological target: Signal transducer and activator of transcription 3 (Homo sapiens) (UniProt P40763); experiment: Inhibition of STAT3 phosphorylation in human KARPAS-299 cells as 0.01 to 1 uM measured after 24 hrs by Western blot analysis; format: cell-based; conditions: dose 0.01-1 µM
Sequence of Signal transducer and activator of transcription 3 (Homo sapiens) (P40763 whole entry, the tested form may be a part): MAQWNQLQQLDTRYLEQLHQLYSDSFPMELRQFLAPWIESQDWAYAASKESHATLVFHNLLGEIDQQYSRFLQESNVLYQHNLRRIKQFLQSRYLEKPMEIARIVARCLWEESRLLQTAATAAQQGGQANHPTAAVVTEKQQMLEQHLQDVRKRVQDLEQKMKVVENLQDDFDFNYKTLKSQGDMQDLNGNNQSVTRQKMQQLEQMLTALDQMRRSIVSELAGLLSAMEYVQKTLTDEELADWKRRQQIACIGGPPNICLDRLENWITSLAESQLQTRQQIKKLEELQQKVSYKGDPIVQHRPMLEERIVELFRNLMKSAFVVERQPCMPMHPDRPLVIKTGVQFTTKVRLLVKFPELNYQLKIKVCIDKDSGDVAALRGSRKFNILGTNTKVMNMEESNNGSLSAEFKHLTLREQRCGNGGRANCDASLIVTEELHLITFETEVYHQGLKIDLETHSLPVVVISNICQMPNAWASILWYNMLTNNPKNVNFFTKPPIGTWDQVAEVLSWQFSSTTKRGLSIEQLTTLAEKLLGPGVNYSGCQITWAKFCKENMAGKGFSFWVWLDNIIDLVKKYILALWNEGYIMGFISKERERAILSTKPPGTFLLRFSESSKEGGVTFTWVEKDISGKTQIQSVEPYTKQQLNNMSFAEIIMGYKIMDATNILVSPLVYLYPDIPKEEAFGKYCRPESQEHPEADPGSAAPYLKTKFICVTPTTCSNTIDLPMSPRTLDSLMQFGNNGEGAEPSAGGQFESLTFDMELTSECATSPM

[13] = biological target: T3, Protein cereblon/ALK tyrosine kinase receptor/Nucleophosmin (Homo sapiens); experiment: Protac activity at CRBN/NPM-ALK in human KARPAS-299 cells assessed as induction of NPM-ALK fusion protein degradation at 0.1 uM incubated for 24 hrs by Western blot analysis relative to control; format: cell-based
KARPAS-299 [14] = experiment: Antitumor activity against human KARPAS-299 cells xenografted in NCG mouse assessed as reduction in tumor weight at 20 mg/kg, po administered once every day for 3 weeks and measured every 3 days; format: functional, organism-based
KARPAS-299 [15] = experiment: Antitumor activity against human KARPAS-299 cells xenografted in NCG mouse assessed as tumor growth inhibition at 20 mg/kg, po administered once every day for 3 weeks and measured every 3 days relative to control; format: functional; conditions: KARPAS-299, 504 h, read-out: TGI
[16] = Toxicity in NCG mouse xenografted with human KARPAS-299 cells assessed as lung damage at 20 mg/kg, po administered once every day for 3 weeks by H and E staining based analysis; format: organism-based; conditions: in vivo, 504 h
KARPAS-299 [17] = experiment: Antitumor activity against human KARPAS-299 cells xenografted in NCG mouse assessed as reduction in tumor volume at 20 mg/kg, po administered once every day for 3 weeks and measured every 3 days; format: functional, organism-based
[18] = Toxicity in NCG mouse xenografted with human KARPAS-299 cells assessed as body weight loss at 20 mg/kg, po administered once every day for 3 weeks; format: organism-based; conditions: in vivo, 504 h
[19] = Toxicity in NCG mouse xenografted with human KARPAS-299 cells assessed as kidney damage at 20 mg/kg, po administered once every day for 3 weeks by H and E staining based analysis; format: organism-based; conditions: in vivo, 504 h
[20] = Toxicity in NCG mouse xenografted with human KARPAS-299 cells assessed as liver damage at 20 mg/kg, po administered once every day for 3 weeks by H and E staining based analysis; format: organism-based; conditions: in vivo, 504 h
[21] = biological target: Leukocyte tyrosine kinase receptor (Homo sapiens) (UniProt P29376); experiment: Inhibition of LTK (unknown origin) at 10 nM relative to control
[22] = Toxicity in NCG mouse xenografted with human KARPAS-299 cells assessed as spleen damage at 20 mg/kg, po administered once every day for 3 weeks by H and E staining based analysis; format: organism-based; conditions: in vivo, 504 h
[23] = Toxicity in NCG mouse xenografted with human KARPAS-299 cells assessed as heart damage at 20 mg/kg, po administered once every day for 3 weeks by H & E staining based analysis; format: organism-based; conditions: in vivo, 504 h
KARPAS-299 [24] = experiment: Antiproliferative activity against human KARPAS-299 cells assessed as inhibition of cell growth measured after 72 hrs by MTT assay; format: functional, cell-based; conditions: KARPAS-299, 72 h

Row | SMILES | IC50 (KARPAS-299 [1]) [nM] | Activity [2] [%] | Activity [3] [%] | IC50 (NCI-H3122) [nM] | inhibition [10] | Activity [11] [%] | inhibition [12] | Activity [13] [%] | viability at 1 µM (BaF3 [4]) [%] | viability at 1 µM (BaF3 [6]) [%] | viability at 1 µM (BaF3 [7]) [%] | viability at 1 µM (BaF3 [8]) [%] | other results
1 | CCc1cc2c(cc1N1CCN(C(=O)CNc3cccc4c3C(=O)N(C3CCC(=O)N(C)C3=O)C4=O)CC1)C(C)(C)c1[nH]c3cc(C#N)ccc3c1C2=O (stereo not drawn) | 275 | – | – | 272 | – | – | – | – | – | – | – | – | IC50 [9]: 30600 nM
2 | CCc1cc2c(cc1N1CCN(CC(=O)NCCCCCCNc3cccc4c3C(=O)N(C3CCC(=O)NC3=O)C4=O)CC1)C(C)(C)c1[nH]c3cc(C#N)ccc3c1C2=O (stereo not drawn) | 114 | 75.8 | 51.3 | 116 | Active | 69.8 | Active | 66.5 | – | – | – | – | –
3 | CCc1cc2c(cc1N1CCN(c3cccc4c3C(=O)N(C3CCC(=O)NC3=O)C4=O)CC1)C(C)(C)c1[nH]c3cc(C#N)ccc3c1C2=O (stereo not drawn) | 101 | 50.2 | 24.3 | 186 | – | 29.9 | – | – | – | – | – | – | –
4 | CCc1cc2c(cc1N1CCC(N3CCN(c4cccc5c4C(=O)N(C4CCC(=O)NC4=O)C5=O)CC3)CC1)C(C)(C)c1[nH]c3cc(C#N)ccc3c1C2=O (stereo not drawn) | 640 | 50.6 | – | 612 | – | – | – | – | – | – | – | – | –
5 | CCc1cc2c(cc1N1CCN(CC(=O)NCCNc3cccc4c3C(=O)N(C3CCC(=O)NC3=O)C4=O)CC1)C(C)(C)c1[nH]c3cc(C#N)ccc3c1C2=O (stereo not drawn) | 106 | 81.8 | 74.4 | 121 | Active | 57.8 | Active | 68.3 | – | – | – | – | –
6 | CCc1cc2c(cc1N1CCC(N3CCNCC3)CC1)C(C)(C)c1[nH]c3cc(C#N)ccc3c1C2=O | 50 | – | – | 40 | – | – | – | – | 0.2 | 0.3 | 0.1 | 0.1 | IC50 [9]: 290 nM
7 | CCc1cc2c(cc1N1CCC(N3CCN(C(=O)CNc4cccc5c4C(=O)N(C4CCC(=O)NC4=O)C5=O)CC3)CC1)C(C)(C)c1[nH]c3cc(C#N)ccc3c1C2=O (stereo not drawn) | 107 | 96.9 | 77.3 | 107 | Active | 94.3 | Active | 72.8 | – | – | – | – | –
8 | CCc1cc2c(cc1N1CCC(N3CCN(CC(=O)NCCCCNc4cccc5c4C(=O)N(C4CCC(=O)NC4=O)C5=O)CC3)CC1)C(C)(C)c1[nH]c3cc(C#N)ccc3c1C2=O (stereo not drawn) | 119 | 87 | 49.9 | 96 | – | – | – | – | 0.1 | 70.9 | 3.6 | 0.1 | –
9 | CCc1cc2c(cc1N1CCN(C(=O)CCCCCNc3cccc4c3C(=O)N(C3CCC(=O)NC3=O)C4=O)CC1)C(C)(C)c1[nH]c3cc(C#N)ccc3c1C2=O (stereo not drawn) | 245 | – | – | 269 | Active | 71.6 | Active | 55.1 | – | – | – | – | –
10 | CCc1cc2c(cc1N1CCC(N3CCN(CC(=O)NCCNc4cccc5c4C(=O)N(C4CCC(=O)NC4=O)C5=O)CC3)CC1)C(C)(C)c1[nH]c3cc(C#N)ccc3c1C2=O (stereo not drawn) | 111 | 91 | 47.8 | 121 | – | – | – | – | – | – | – | – | –
11 | Nc1cccc2c1C(=O)N(C1CCC(=O)NC1=O)C2=O (stereo not drawn) [POMALIDOMIDE] | – | – | – | – | – | – | – | – | – | – | – | – | IC50 (KARPAS-299 [24]): > 10000 nM

Continued by falling IC50 (KARPAS-299 [1]), values first:

Row | IC50 (KARPAS-299 [1]) [nM] | Activity [2] [%] | Activity [3] [%] | IC50 (NCI-H3122) [nM] | inhibition [10] | Activity [11] [%] | inhibition [12] | Activity [13] [%] | SMILES | viability at 1 µM (BaF3 [4]) [%] | viability at 1 µM (BaF3 [6]) [%] | viability at 1 µM (BaF3 [7]) [%] | viability at 1 µM (BaF3 [8]) [%] | other results
12 | 119 | 77.3 | 24.5 | 118 | – | – | – | – | CCc1cc2c(cc1N1CCC(N3CCN(CC(=O)NCCCCCCNc4cccc5c4C(=O)N(C4CCC(=O)NC4=O)C5=O)CC3)CC1)C(C)(C)c1[nH]c3cc(C#N)ccc3c1C2=O (stereo not drawn) | – | – | – | – | –
13 | 97 | 75.7 | 38.3 | 77 | Active | 76 | Active | 56.5 | CCc1cc2c(cc1N1CCN(CC(=O)NCCCCNc3cccc4c3C(=O)N(C3CCC(=O)NC3=O)C4=O)CC1)C(C)(C)c1[nH]c3cc(C#N)ccc3c1C2=O (stereo not drawn) | 0.1 | 76.1 | 4.8 | 0 | –
14 | 66 | – | – | 92 | Active | 85.9 | Active | 77.4 | CCc1cc2c(cc1N1CCN(C(=O)CCCNc3cccc4c3C(=O)N(C3CCC(=O)NC3=O)C4=O)CC1)C(C)(C)c1[nH]c3cc(C#N)ccc3c1C2=O (stereo not drawn) | – | – | – | – | –
15 | 47 | – | – | 45 | – | – | – | – | CCc1cc2c(cc1N1CCC(N3CCOCC3)CC1)C(C)(C)c1[nH]c3cc(C#N)ccc3c1C2=O [ALECTINIB] | 0.1 | 73.3 | 1.9 | 0 | Activity (KARPAS-299 [14]): Active; inhibition in vivo at 20 mg/kg (KARPAS-299 [15]): 63.8%; Activity [16]: Non-Toxic; Activity (KARPAS-299 [17]): Active; Activity [18]: Non-Toxic; viability at 1 µM (BaF3 [5]): 100%; Activity [19]: Non-Toxic; Activity [20]: Non-Toxic; inhibition [21]: > 50%; Activity [22]: Non-Toxic; Activity [23]: Non-Toxic
16 | 46 | – | – | 38 | – | – | – | – | CCc1cc2c(cc1N1CCNCC1)C(C)(C)c1[nH]c3cc(C#N)ccc3c1C2=O | 0.2 | 0.5 | 0.1 | 0 | viability at 1 µM (BaF3 [5]): 74%; IC50 [9]: 320 nM
